Reference: ChEMBL document CHEMBL1147017, “Synthesis and antiproliferative activity of two new tiazofurin analogues with 2'-amido functionalities” (Bioorg Med Chem Lett, 2006)

Tests used:
Type in all cases: functional, cell-based
HL-60 = assay: Antiproliferative activity against human HL60 cell line
HT-29 = assay: Antiproliferative activity against human HT29 cell line
MCF7 = assay: Antiproliferative activity against human MCF7 cell line
HeLa = assay: Antiproliferative activity against human HeLa cell line
MRC5 = assay: Antiproliferative activity against human MRC5 cell line
K562 = assay: Antiproliferative activity against human K562 cell line

IC50 (HL-60) [µM]	IC50 (HT-29) [µM]	IC50 (MCF7) [µM]	IC50 (HeLa) [µM]	IC50 (K562) [µM]	Structure (SMILES)	IC50 (MRC5) [µM]
> 100	> 100	0.014	8.75	> 100	CCCCCC(=O)N[C@@H]1[C@H](O)[C@@H](CO)O[C@H]1c1nc(C(N)=O)cs1	> 100
4.82	0.011	> 100	3.22	35.6	CCCCCCCCCCCC(=O)N[C@@H]1[C@H](O)[C@@H](CO)O[C@H]1c1nc(C(N)=O)cs1	> 100
–	–	7.98	–	–	NC(=O)c1csc([C@@H]2O[C@H](CO)[C@@H](O)[C@H]2O)n1 [TIAZOFURIN]	–
